# Measurements from patent publication US20210162013A1, “COMPOSITIONS AND METHODS FOR IMPROVING THE BIOAVAILABILITY OF GLP1 AND ANALOGUES THEREOF” (Brown University, priority 2018, published 2021).
# Like-named read-outs stand apart in the source and are kept apart here. No end group written: not given here.
# How the values were obtained:
# BKS.Cg WT mice = assay: Bioavailability: IPGTT, oral PIN/PLA GLP-1 vs intraperitoneal soluble peptide, serum glucose AUC; type: in vivo
# Method: All mice were then injected intraperitoneally with glucose (3 mg/ml in 0.2 ml saline). Blood was collected at time 0 (pre-glucose) and at indicated times post-glucose. Serum glucose levels were determined as described above.
# [1] = oral, relative to intravenous administration of GLP-1; cited from earlier work
# GLP-1 receptor [2] = molecular target: T1, GLP-1 receptor (Homo sapiens, UniProt P43220); conditions: cited from earlier work
# T1 sequence (P43220 24-463, species assumed): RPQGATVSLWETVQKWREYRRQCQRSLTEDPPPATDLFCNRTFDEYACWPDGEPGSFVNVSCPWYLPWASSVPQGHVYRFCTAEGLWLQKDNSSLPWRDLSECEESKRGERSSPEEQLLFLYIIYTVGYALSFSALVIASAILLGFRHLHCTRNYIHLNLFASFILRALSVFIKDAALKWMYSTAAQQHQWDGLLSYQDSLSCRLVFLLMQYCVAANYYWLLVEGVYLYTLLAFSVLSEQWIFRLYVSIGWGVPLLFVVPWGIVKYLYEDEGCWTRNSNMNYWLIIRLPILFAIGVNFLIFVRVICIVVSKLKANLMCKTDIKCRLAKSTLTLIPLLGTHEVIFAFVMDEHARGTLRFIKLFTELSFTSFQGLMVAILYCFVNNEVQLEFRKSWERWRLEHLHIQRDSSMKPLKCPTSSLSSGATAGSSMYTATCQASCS
# GLP-1 receptor [3] = molecular target: T1, GLP-1 receptor; conditions: cited from earlier work; remark: listed apart in the source
# type 2 diabetic patients = conditions: cited from earlier work
substance,measurement,setting,value
GLP-1 (7-36 amide) [Free],AUC 30 ug (serum glucose area under the curve),"BKS.Cg WT mice; 30 ug GLP-1/mouse, Free = intraperitoneal soluble peptide, Encap = oral PIN/PLA particles",7515
same,AUC 90 ug (serum glucose area under the curve),"BKS.Cg WT mice; 90 ug GLP-1/mouse, Free = intraperitoneal soluble peptide, Encap = oral PIN/PLA particles",7425
same,AUC 250 ug (serum glucose area under the curve),"BKS.Cg WT mice; 250 ug GLP-1/mouse, Free = intraperitoneal soluble peptide, Encap = oral PIN/PLA particles",6262
same,effect on blood glucose in IPGTT (in words),"BKS.Cg WT mice; 250 μg GLP-1, oral particles vs intraperitoneal soluble peptide",superior
same,mean absolute bioavailability,[1],4%
"GLP-1(9-36)-NH2 (EGTFTSDVSSYLEGQAAKEFIAWLVKGR-NH2; UniProt P01275 100-127, looked up, fragment)",lower binding affinity compared to the intact peptide,GLP-1 receptor [2],100 fold
same,decrease in agonistic activity,GLP-1 receptor [3],> 10000 fold
rGLP-1: rGLP-1 given by continuous infusion in a cited study,decrease in fasting serum glucose,type 2 diabetic patients; 1.25 pmol/kg/min,22.7 mg/dL
same,decrease in fasting serum glucose,type 2 diabetic patients; 2.5 pmol/kg/min,37.0 mg/dL
same,decrease in fasting serum glucose,type 2 diabetic patients; 5.0 pmol/kg/min,53.9 mg/dL
same,decrease in fasting serum glucose,type 2 diabetic patients; 8.5 pmol/kg/min,76.2 mg/dL
